“Also recorded” adds a separate entry of the source. Square brackets hold non-standard residues; d marks the D form. Ends that are not written are not given here.
System: S. vaccaria PCY1
Experiment: In vitro assay of recombinant S. vaccaria PCY1 with wild type and mutant presegetalin substrates, products detected by LC/MS
Format: biochemical, Saponaria vaccaria
Set-up: key to CP (cyclic peptide product detected by LC/MS after in vitro assay) / LP (linear peptide product detected by LC/MS after in vitro assay): +=presence; −=absence
Settings: for CP (cyclic peptide product detected by LC/MS after in vitro assay) / LP (linear peptide product detected by LC/MS after in vitro assay): substrates tested for cyclization by S. vaccaria PCY1; for cyclic peptide production by S. vaccaria PCY1 (in words) / linear peptide production by S. vaccaria PCY1 (in words): LC/MS and MS/MS
Method: The gene corresponding to S. vaccaria PCY1 was cloned and expressed in E. coli with a His-tag. HisPur Cobalt Resin™ (Thermo Scientific) was used for purification of recombinant PCY1. The purified PCY1 was quantified using BCA method (Pierce; http://http://www.piercenet.com/) with BSA as a calibration standard. The in vitro assay contained 20 mM Tris buffer (pH 8.5), 100 mM NaCl, 5 mM DTT, 0.2 mg BSA, and 1.5 μg of substrates (wild type and mutant presegetalins, procured from Bio Basic Inc with >90% purity) and was initiated by the addition of 0.3 μg of PCY1, in a total reaction volume of 100 μl. The assay was incubated at 30° C. for up to 1 h and stopped by placing reactions in dry ice. The assays were lyophilized, re-suspended in methanol, evaporated and re-suspended in 50:50 v/v methanol/water for LC/MS analysis.
Ion trap ESI+ LC/MS/MS analysis was used to detect production of cyclic peptides using an Agilent 6320 Ion Trap LC/MS system under default Smart Parameter settings. The analyzer and ion optics were adjusted to achieve proper resolution (Agilent Installation Guide #G2440-90105) using the ESI Tuning Mix (Agilent #G2431A). The mass spectrometer scanned from 50 to 2200 mass units at 8100 mass units sec^−1 with an expected peak width of 0.35 atomic mass units. For auto MS/MS, the trap isolation width was 4 atomic mass units. The associated Agilent 1200 LC was fitted with a Zorbax 300 EXTEND-C18 column (150×2.1 mm, 3.5 μm particle size) maintained at 35° C. The binary solvent system consisted of 90:10 v/v water/acetonitrile containing 0.1% formic acid and 0.1% ammonium formate (solvent A) and 10:90 v/v water/acetonitrile containing 0.1% formic acid and 0.1% ammonium formate (solvent B). The separation gradient was 90:10 A/B to 50:50 A/B in 3 ml over 20 min.
In order to characterize substrate specificity of PCY1 and understand the segetalin A biosynthetic mechanism, a total of 44 substrates (Table 3) were tested for the PCY1 activity and the results are briefly summarized in Table 3. The last two columns in Table 3 summarize product type detected by LC/MS after in vitro assays (CP is cyclic peptide and LP is linear peptide, +=presence, −=absence, NA=not applicable). The 44 substrates were classified as follows: • (A) Presegetalin A1 [14,32], a wild type (WT) precursor of segetalin A • (B) Truncated mutants of presegetalin A1[14,32] • (C) Alanine scanning mutants corresponding to variants of the mature segetalin A sequence • (D) Alanine scanning mutants of the C-terminal region of presegetalin A1[14,32] • (E) D-amino acid mutants corresponding to variants of the mature segetalin A sequence • (F) Insertion mutants corresponding to variants of the mature segetalin A sequence • (G) Other A-class and F-class presegetalins • (H) Putative cyclic peptide precursors from Dianthus caryophyllus

S. vaccaria PCY1, sequence (as listed by the source): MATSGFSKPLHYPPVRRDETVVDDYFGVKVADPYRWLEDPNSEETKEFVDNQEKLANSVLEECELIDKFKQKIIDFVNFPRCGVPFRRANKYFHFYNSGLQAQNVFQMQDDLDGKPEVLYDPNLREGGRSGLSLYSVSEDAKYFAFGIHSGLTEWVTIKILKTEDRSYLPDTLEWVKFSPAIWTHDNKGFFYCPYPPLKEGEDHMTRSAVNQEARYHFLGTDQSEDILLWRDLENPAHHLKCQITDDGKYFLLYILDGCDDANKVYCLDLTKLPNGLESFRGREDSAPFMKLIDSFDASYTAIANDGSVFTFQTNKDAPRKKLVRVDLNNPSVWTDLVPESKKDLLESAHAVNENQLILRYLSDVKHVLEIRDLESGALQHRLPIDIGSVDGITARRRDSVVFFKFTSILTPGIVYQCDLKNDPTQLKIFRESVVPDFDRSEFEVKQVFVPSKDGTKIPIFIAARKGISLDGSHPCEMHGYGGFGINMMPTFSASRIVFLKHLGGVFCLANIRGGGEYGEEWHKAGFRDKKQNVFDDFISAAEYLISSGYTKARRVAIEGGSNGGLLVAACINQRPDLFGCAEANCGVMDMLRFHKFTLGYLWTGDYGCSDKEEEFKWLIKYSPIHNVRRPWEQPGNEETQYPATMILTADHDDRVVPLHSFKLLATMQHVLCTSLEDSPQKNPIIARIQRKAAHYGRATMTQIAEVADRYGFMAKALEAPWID

Question: Which “CP (cyclic peptide product detected by LC/MS after in vitro assay)” value (“CP” for short) does the source give for “5 (GVPVWAF; Presegetalin A1[14,20]) [compound 5]” here?
Answer: −

Question: What about the “LP (linear peptide product detected by LC/MS after in vitro assay)” value (“LP” below) of the same substance?
Answer: −

Question: “21 (GVPVWAFQAKDVENVSAPV; Presegetalin A1[14,32] A28V) [compound 21]” was tested. Which “cyclic peptide production by S. vaccaria PCY1 (in words)” value (shortened to “cyclic peptide production”) did it give?
Answer: sensitive

Question: And the “CP” value?
Answer: +

Question: And the “LP” value?
Answer: +

Question: With “33 (GVPAVWAFQAKDVENASAPV; Presegetalin A1[14,32] ins 16A17) [compound 33]” as the substance, how does the “cyclic peptide production” value read?
Answer: both detected

Question: And the “linear peptide production by S. vaccaria PCY1 (in words)” value (“linear peptide production” for short)?
Answer: both detected

Question: And the “CP” value?
Answer: +

Question: And the “LP” value?
Answer: +

Question: Which “linear peptide production” value does the source give for “Presegetalin A1[14,32]F20A (GVPVWAAQAKDVENASAPV; Presegetalin A1[14,32] F20A) [No. 13]” here?
Answer: presence of linear peptide was confirmed by MS/MS analysis

Question: What does the source list for “42 (FGTHGLPAPIQVPNGMDDACAPM; Presegetalin J1[14,36]) [compound 42]”?
Answer: cyclic peptide production by S. vaccaria PCY1 (in words): cyclic peptide products were detected from all of them; CP (cyclic peptide product detected by LC/MS after in vitro assay): +; LP (linear peptide product detected by LC/MS after in vitro assay): −

Question: For “22 (GVPVWAFQAKDVENAAAPV; Presegetalin A1[14,32] S29A) [compound 22]”, which “cyclic peptide production” value is on record?
Answer: relatively higher amounts of segetalin A than that produced from WT substrate

Question: And the “increase in segetalin A production relative to wild type presegetalin A1[14,32]” value (alanine scanning mutants of C-terminal region)?
Answer: 30%

Question: What about the “CP” value of the same substance?
Answer: +

Question: And the “LP” value?
Answer: +

Question: “9 (GVAVWAFQAKDVENASAPV; Presegetalin A1[14,32] variant aa16 = alanine) [compound 9]” was tested. Which “CP” value did it give?
Answer: +

Question: What about the “LP” value of the same substance?
Answer: +

Question: For “26 (G[dV]PVWAFQAKDVENASAPV) [compound 26]”, which “CP” value is on record?
Answer: +

Question: And the “LP” value?
Answer: +

Question: Which “CP” value does the source give for “23 (GVPVWAFQAKDVENASVPV; Presegetalin A1[14,32] A30V) [compound 23]” here?
Answer: +

Question: What about the “LP” value of the same substance?
Answer: +

Question: “8 (GAPVWAFQAKDVENASAPV; Presegetalin A1[14,32] variant aa15 = alanine) [compound 8]” was tested. Which “CP” value did it give?
Answer: +

Question: What about the “LP” value of the same substance?
Answer: +

Question: Which “linear peptide production” value does the source give for “3 (GVPVWAFQAKDVENA; Presegetalin A1[14,28]) [compound 3]” here?
Answer: almost equivalent to the linear peptide formed from the WT substrate

Question: What about the “CP” value of the same substance?
Answer: −

Question: And the “LP” value?
Answer: +

Question: For “4 (GVPVWAFQAKD; Presegetalin A1[14,24]) [compound 4]”, which “linear peptide production” value is on record?
Answer: almost equivalent to the linear peptide formed from the WT substrate

Question: What about the “CP” value of the same substance?
Answer: −

Question: And the “LP” value?
Answer: +

Question: For “38 (GVKYAFQPKDSENASAPV; Presegetalin G1[14,31]) [compound 38]”, which “cyclic peptide production” value is on record?
Answer: cyclic peptide products were detected from all of them

Question: And the “CP” value?
Answer: +

Question: And the “LP” value?
Answer: −

Question: Which “cyclic peptide production” value does the source give for “Presegetalin A1[14,32]W18w (GVPV[dW]AFQAKDVENASAPV) [No. 29]” here?
Answer: relatively weakly converted to cyclic peptide

Question: With “24 (GVPVWAFQAKDVENASAAV; Presegetalin A1[14,32] P31A) [compound 24]” as the substance, how does the “cyclic peptide production” value read?
Answer: sensitive

Question: And the “segetalin A production, times lower than the WT substrate” value (alanine scanning mutants of C-terminal region, FIG. 9)?
Answer: 11 times

Question: And the “CP” value?
Answer: +

Question: And the “LP” value?
Answer: +

Question: “2 (GVPVWAFQAKDVENAPV; Presegetalin A1[14,30]) [compound 2]” was tested. Which “linear peptide production” value did it give?
Answer: almost equivalent to the linear peptide formed from the WT substrate

Question: And the “LP” value?
Answer: +

Question: What does the source list for “37 (GLSFAFQAKDAENASSPV; Presegetalin D1[14,31] P20Q) [compound 37]”?
Answer: cyclic peptide production by S. vaccaria PCY1 (in words): resulted in a 5 amino acid cyclic peptide product; CP (cyclic peptide product detected by LC/MS after in vitro assay): +; LP (linear peptide product detected by LC/MS after in vitro assay): −

Question: How did the “CP” value turn out when “28 (GVP[dV]WAFQAKDVENASAPV) [compound 28]” was run?
Answer: +

Question: And the “LP” value?
Answer: −

Question: “6 (GVPVWA; Presegetalin A1[14,19]) [compound 6]” was tested. Which “CP” value did it give?
Answer: −

Question: “1 (GVPVWAFQAKDVENASAPV; listed as Saponaria vaccaria) [compound 1]” was tested. Which “cyclic peptide production” value did it give?
Answer: segetalin A and the linear form (linear peptide) of segetalin A were produced; also recorded: cyclic peptide products were detected from all of them

Question: What about the “PCY1 activity (total amount of segetalin A produced)” value (WT precursor, optimized assay condition) of the same substance?
Answer: 3 nmol/mg of protein/min

Question: What about the “CP” value of the same substance?
Answer: +

Question: And the “LP” value?
Answer: +

Question: Which results are given for “43 (GPIPFYGFQAKDAENASVPV; - Dianthus Precursor A[14,33]) [compound 43]”?
Answer: cyclic peptide production by S. vaccaria PCY1 (in words): small amount of cyclic peptide production; CP (cyclic peptide product detected by LC/MS after in vitro assay): +; LP (linear peptide product detected by LC/MS after in vitro assay): −

Question: For “29 (GVPV[dW]AFQAKDVENASAPV) [compound 29]”, which “CP” value is on record?
Answer: +

Question: What about the “LP” value of the same substance?
Answer: +

Question: “15 (GVPVWAFQVKDVENASAPV; Presegetalin A1[14,32] A22V) [compound 15]” was tested. Which “CP” value did it give?
Answer: +

Question: And the “LP” value?
Answer: +

Question: With “41 (FSASYSSKPIQTQVSNGMDNASAPV; Presegetalin F1[14,38]) [compound 41]” as the substance, how does the “cyclic peptide production” value read?
Answer: cyclic peptide products were detected from all of them

Question: And the “CP” value?
Answer: +

Question: And the “LP” value?
Answer: −

Question: How did the “cyclic peptide production” value turn out when “40 (GLPGWPFQAKDVENASAPV; Presegetalin L1[14,32]) [compound 40]” was run?
Answer: cyclic peptide products were detected from all of them

Question: And the “CP” value?
Answer: +

Question: And the “LP” value?
Answer: −

Question: Which results are given for “16 (GVPVWAFQAADVENASAPV; Presegetalin A1[14,32] K23A) [compound 16]”?
Answer: cyclic peptide production by S. vaccaria PCY1 (in words): sensitive; CP (cyclic peptide product detected by LC/MS after in vitro assay): +; LP (linear peptide product detected by LC/MS after in vitro assay): +

Question: For “19 (GVPVWAFQAKDVANASAPV; Presegetalin A1[14,32] E26A) [compound 19]”, which “cyclic peptide production” value is on record?
Answer: relatively higher amounts of segetalin A than that produced from WT substrate

Question: What about the “CP” value of the same substance?
Answer: +

Question: What about the “LP” value of the same substance?
Answer: +

Question: What does the source list for “20 (GVPVWAFQAKDVEAASAPV; Presegetalin A1[14,32] N27A) [compound 20]”?
Answer: cyclic peptide production by S. vaccaria PCY1 (in words): sensitive; CP (cyclic peptide product detected by LC/MS after in vitro assay): +; LP (linear peptide product detected by LC/MS after in vitro assay): +

Question: What does the source list for “13 (GVPVWAAQAKDVENASAPV; Presegetalin A1[14,32] F20A) [compound 13]”?
Answer: cyclic peptide production by S. vaccaria PCY1 (in words): sensitive; CP (cyclic peptide product detected by LC/MS after in vitro assay): +; LP (linear peptide product detected by LC/MS after in vitro assay): +

Question: How did the “cyclic peptide production” value turn out when “14 (GVPVWAFAAKDVENASAPV; Presegetalin A1[14,32] Q21A) [compound 14]” was run?
Answer: sensitive

Question: And the “CP” value?
Answer: +

Question: And the “LP” value?
Answer: +

Question: How did the “cyclic peptide production” value turn out when “18 (GVPVWAFQAKDAENASAPV; Presegetalin A1[14,32] V25A) [compound 18]” was run?
Answer: relatively higher amounts of segetalin A than that produced from WT substrate

Question: What about the “CP” value of the same substance?
Answer: +

Question: What about the “LP” value of the same substance?
Answer: +

Reference: patent US9394561B2, “Cyclic peptide production” (National Research Council of Canada, priority 2011, dated 2016)
